A word on the MIC: it is the lowest concentration found to suppress growth. As a reminder, the inhibition is the percentage by which the read-out fell short of the control. The IC50 is the concentration at which inhibition is half-maximal.

The structures appear in SMILES notation. Values after ≈ are worked out from the molar mass of the structure shown.

MIC, inhibition and IC50 data for 47 molecules are collected here from ChEMBL document CHEMBL4364263, “Synthesis and biological evaluation of 2,4,5-trisubstituted thiazoles as antituberculosis agents effective against drug-resistant tuberculosis” (Eur J Med Chem, 2019).

Experiment [1] deals with Mycobacterium tuberculosis. Nature of the experiment: Antitubercular activity against replicating Mycobacterium tuberculosis H37Rv assessed as growth inhibition measured after 7 days incubation by microplate alamar blue assay. Type of experiment: functional. To be noted: 168 h. For orientation: Resazurin is reduced to fluorescent resorufin, in cell work by metabolically active cells.

For experiment [2], the system named is Mycobacterium tuberculosis. Nature of the experiment: Antimycobacterial activity against dormant stage of Mycobacterium tuberculosis H37Ra ATCC 25177 assessed as growth inhibition at 10 uM incubated for 12 days by XRMA method relative to control. The experiment is classed as functional. To be noted: H37Ra ATCC 25177, 288 h.
The test system of experiment [3] is CHO-K1. Nature of the experiment: Cytotoxicity against CHOK1 cells assessed as reduction in cell viability incubated for 24 hrs by MTT assay. To be noted: Cricetulus griseus, CHO-K1, 24 h. Type of experiment: cell-based.

With `CC(C)c1nc(C(=O)NCc2cccnc2)c(-c2ccc(C#N)cc2)s1`, the MIC in experiment [1] is above 34 µg/mL.
Take `CCOC(=O)c1nc(C(C)C)sc1-c1ccccc1C#N`: the minimum inhibitory concentration (MIC) in experiment [1] was found to be 15 µg/mL (≈ 49.9 µM).
Still for that read-out and setting: in the case of `N#Cc1ccc(-c2sc(C3CCCCC3)nc2C(=O)N2CCOCC2)cc1` it was above 34 µg/mL.
For the molecule `Cc1nc(C(=O)N[C@H](C)c2ccccc2)c(-c2ccc(C#N)cc2)s1`, the inhibition at 10 µM in experiment [2] turned out to be 74%. The MIC in experiment [1] was above 34 µg/mL.
Regarding `CCOC(=O)c1nc(C)sc1-c1ccc2c(c1)OCO2`, in experiment [1], the MIC was determined as 13.6 µg/mL (≈ 46.7 µM).
Turning to `CCOC(=O)c1nc(C2CCCCC2)sc1-c1cnc2ccccc2c1`, the inhibition at 10 µM in experiment [2] worked out at 86.5%. Moreover, the MIC in experiment [1] was determined as 4.5 µg/mL (≈ 12.3 µM).
On the same counts, the results for `CC(C)c1nc(C(=O)N[C@H](C)c2ccccc2)c(-c2ccc3c(c2)OCO3)s1` are 90.9% and 4.9 µg/mL (≈ 12.4 µM).
On the same counts, the results for `COc1ccc(CCNC(=O)c2nc(C3CCCCC3)sc2-c2ccc(C#N)cc2)cc1OC` are 71.6% and 5.9 µg/mL (≈ 12.4 µM).
On the same counts, the results for `CCOC(=O)c1nc(C2CCCCC2)sc1-c1ccc2nccnc2c1` are 93.3% and 4.5 µg/mL (≈ 12.2 µM).
As for `Cc1nc(C(=O)N2CCOCC2)c(-c2ccc(C#N)cc2)s1`, the minimum inhibitory concentration (MIC) in experiment [1] is above 34 µg/mL.
Consider `COc1ccc(CCNC(=O)c2nc(C(C)C)sc2-c2ccc3c(c2)OCO3)cc1OC`, for which, in experiment [2], the inhibition at 10 µM stood at 84.9%. Besides, the MIC in experiment [1] was 5.6 µg/mL (≈ 12.3 µM).
On the same counts, the results for `COc1ccc(CCNC(=O)c2nc(C(C)C)sc2-c2ccc(C#N)cc2)cc1OC` are 89.4% and 5.4 µg/mL (≈ 12.4 µM).
In the case of `C[C@@H](NC(=O)c1nc(C2CCCCC2)sc1-c1ccc(C#N)cc1)c1ccccc1`, the inhibition at 10 µM in experiment [2] worked out at 57.8%. Besides, the minimal inhibitory concentration (MIC) in experiment [1] was 10.3 µg/mL (≈ 24.8 µM).
Consider `CCOC(=O)c1nc(C2CCCCC2)sc1-c1cccc2cnccc12`, for which, in experiment [2], the inhibition at 10 µM was found to be 96%. Also, the MIC in experiment [1] was determined as 4.5 µg/mL (≈ 12.3 µM).
For `CC(C)c1nc(C(=O)NCc2ccc(Cl)c(F)c2)c(-c2ccc(C#N)cc2)s1`, in experiment [1], the MIC is above 34 µg/mL.
Regarding `CC(C)c1nc(C(=O)N2CCOCC2)c(-c2ccc3c(c2)OCO3)s1`, in experiment [1], the MIC was above 34 µg/mL.
With `CCOC(=O)c1nc(C(C)C)sc1-c1cccc2cnccc12`, the MIC in experiment [1] was 16.3 µg/mL (≈ 49.9 µM).
On the same count and under the same terms, in the case of `CC(C)c1nc(C(=O)NCc2ccc3c(c2)OCO3)c(-c2ccc(C#N)cc2)s1` it was above 34 µg/mL.
The same measure, in the same setting: in the case of `CC(C)c1nc(C(=O)NC(C)c2ccc(Br)cc2)c(-c2ccc(C#N)cc2)s1` (configuration not stated) it was above 34 µg/mL.
With `CC(C)c1nc(C(=O)N[C@H](C)c2ccccc2)c(-c2ccc(C#N)cc2)s1`, the inhibition at 10 µM in experiment [2] was 86.7%. For the same molecule, the MIC in experiment [1] was found to be 9.3 µg/mL (≈ 24.8 µM).
As for `COc1ccc(CCNC(=O)c2nc(C)sc2-c2ccc(C#N)cc2)cc1OC`, in experiment [2], the inhibition at 10 µM came to 67.3%. Further, the MIC in experiment [1] is above 34 µg/mL.
As to `CC(C)c1nc(C(=O)N[C@H](C)c2cccc3ccccc23)c(-c2ccc(C#N)cc2)s1`, the MIC in experiment [1] was above 34 µg/mL.
As for `CCOC(=O)c1nc(C2CCCCC2)sc1-c1ccc2c(c1)NC(=O)CO2`, in experiment [1], the MIC amounted to 19.3 µg/mL (≈ 49.9 µM).
Turning to `CC(C)c1nc(C(=O)NCc2cccnc2)c(-c2ccc3c(c2)OCO3)s1`, in experiment [2], the inhibition at 10 µM amounted to 87.1%. The MIC in experiment [1] stood at 9.5 µg/mL (≈ 24.9 µM).
As for `CCOC(=O)c1nc(C(C)C)sc1-c1ccc2nccnc2c1`, the inhibition at 10 µM in experiment [2] came to 19.5%. The MIC in experiment [1] came to 8.1 µg/mL (≈ 24.7 µM).
Turning to `Cc1ccc(C(C)NC(=O)c2nc(C(C)C)sc2-c2ccc(C#N)cc2)cc1` (configuration not stated), in experiment [1], the MIC is above 34 µg/mL.
The same measure, in the same setting: to `CC(C)c1nc(C(=O)NCc2ccc(Cl)cc2)c(-c2ccc(C#N)cc2)s1` belongs above 34 µg/mL; to `Cc1nc(C(=O)NCc2ccc3c(c2)OCO3)c(-c2ccc(C#N)cc2)s1`, above 34 µg/mL.
With `CCOC(=O)c1nc(C2CCCCC2)sc1-c1ccc2c(c1)OCO2`, in experiment [2], the inhibition at 10 µM is 92%. Moreover, in experiment [1], the MIC turned out to be 8.9 µg/mL (≈ 24.8 µM).
Regarding `CC(C)c1nc(C(=O)NCc2cc(Cl)cc(Cl)c2)c(-c2ccc(C#N)cc2)s1`, the minimal inhibitory concentration (MIC) in experiment [1] was above 34 µg/mL.
Turning to `CO[C@H]1/C=C/O[C@@]2(C)Oc3c(C)c(O)c4c(O)c(c(/C=N/N5CCN(C)CC5)c(O)c4c3C2=O)NC(=O)/C(C)=C\C=C\[C@H](C)[C@H](O)[C@@H](C)[C@@H](O)[C@@H](C)[C@H](OC(C)=O)[C@@H]1C` [RIFAMPIN], the MIC in experiment [1] turned out to be 0.2 µg/mL (≈ 0.243 µM).
Still for that read-out and setting: to `CC(C)c1nc(C(=O)NCc2ccc(F)cc2)c(-c2ccc(C#N)cc2)s1` belongs above 34 µg/mL.
In the case of `CCOC(=O)c1nc(C)sc1-c1ccc(C#N)cc1`, the inhibition at 10 µM in experiment [2] turned out to be 20.2%. Besides, in experiment [1], the MIC was 14.5 µg/mL (≈ 53.2 µM).
Consider `CCOC(=O)c1nc(C(C)C)sc1-c1ccc2c(c1)NC(=O)CO2`, for which the MIC in experiment [1] is above 34 µg/mL.
For `CC(C)c1nc(C(=O)N[C@@H](C)c2ccccc2)c(-c2ccc3c(c2)OCO3)s1`, in experiment [2], the inhibition at 10 µM was found to be 90.8%. Further, in experiment [1], the MIC turned out to be 4.9 µg/mL (≈ 12.4 µM).
With `CO[C@@]12[C@H](COC(N)=O)C3=C(C(=O)C(C)=C(N)C3=O)N1C[C@@H]1N[C@@H]12` [MITOMYCIN], the IC50 in experiment [3] came to 13.1 µg/mL (≈ 39.2 µM).
With `CC(C)c1nc(C(=O)NCc2ccc3c(c2)OCO3)c(-c2ccc3c(c2)OCO3)s1`, in experiment [2], the inhibition at 10 µM worked out at 82.2%. Also, the MIC in experiment [1] worked out at 10.6 µg/mL (≈ 25 µM).
On the same counts, the results for `CC(C)c1nc(C(=O)N[C@@H](C)c2ccccc2)c(-c2ccc(C#N)cc2)s1` are 73.2% and 18.7 µg/mL (≈ 49.8 µM).
Regarding `N#Cc1ccc(-c2sc(C3CCCCC3)nc2C(=O)NCc2ccc3c(c2)OCO3)cc1`, the MIC in experiment [1] is above 34 µg/mL.
The same measure, in the same setting: in the case of `Cc1nc(C(=O)NCc2cccnc2)c(-c2ccc(C#N)cc2)s1` it was above 34 µg/mL; in that of `CCOC(=O)c1nc(C(C)C)sc1-c1cccc(C#N)c1`, 15 to 17 µg/mL (≈ 49.9 to 56.6 µM).
Regarding `CCOC(=O)c1nc(C(C)C)sc1-c1ccc2c(c1)OCO2`, in experiment [2], the inhibition at 10 µM was determined as 90.1%. In addition, the MIC in experiment [1] came to 7.9 µg/mL (≈ 24.7 µM).
On the same counts, the results for `Cc1nc(C(=O)N[C@@H](C)c2ccccc2)c(-c2ccc(C#N)cc2)s1` are 73.5% and above 34 µg/mL.
In the case of `C[C@H](NC(=O)c1nc(C2CCCCC2)sc1-c1ccc(C#N)cc1)c1ccccc1`, the MIC in experiment [1] was determined as 20.7 µg/mL (≈ 49.8 µM).
Same read-out and setting: in the case of `N#Cc1ccc(-c2sc(C3CCCCC3)nc2C(=O)NCc2cccnc2)cc1` it was above 34 µg/mL; in that of `CC(C)c1nc(C(=O)N2CCOCC2)c(-c2ccc(C#N)cc2)s1`, above 34 µg/mL.
Regarding `CC(C)c1nc(C(=O)NCc2ccccc2)c(-c2ccc(C#N)cc2)s1`, in experiment [1], the minimal inhibitory concentration (MIC) is above 34 µg/mL.
